Laboratory results as given in patent US10568344B2, “Methods of improving animal performance” (Novozymes A/S, priority 2015, dated 2020).
Like-named read-outs stand apart in the source and are kept apart here. Marks after values point to notes of the source that are not given here.

Tests used:
[1] = system: Exiguobacterium undae (DSM14481); assay: Lysozyme activity turbidity assay (optical density drop); assay type: biochemical; conditions: pH 6
[2] = system: Clostridium perfringens DSM756; assay type: cell-based; conditions: for Diameter of clearing zone: lysozymes 100 μg/ml, bacitracin 50 μg/ml
[3] = system: Micrococcus lysodeikticus ATTC No. 4698; assay: Lysozyme activity turbidity assay (optical density drop); conditions: pH 6
[4] = In vivo broiler trial 1, growth performance; set-up: species or system male broiler chickens (ROSS PM3); conditions: for Improvement of FCR compared to the control diet / Improvement of weight gain compared to the control diet: 10 mg/kg; for FCR / FCR, Relative to C (%) / Feed intake / Feed intake, Relative to C (%) / Weight gain / Weight gain, Relative to C (%): 10 mg/kg feed
[5] = In vivo broiler trial 2, growth performance; set-up: species or system male broiler chickens; conditions: for FCR / FCR, Relative to C (%) / Feed intake / Feed intake, Relative to C (%) / Weight gain / Weight gain, Relative to C (%): 10 mg/kg feed; for Improvement of FCR compared to the control diet / Improvement of weight gain compared to the control diet: 10 mg/kg
Method: No additional enzymes (e.g. phytase) were added to the feed. The experimental diets (Starter and Grower) were based on soybean meal, wheat and rye (12%) as main ingredients (Table 6). The diets were formulated to contain 222 g crude protein and 12.5 MJ/kg MEN for the starter period and 204 g crude protein and 12.7 MJ/kg MEN for the grower period.

[6] = In vivo broiler trial 3, growth performance; set-up: species or system male broiler chickens; Motality: unit not given here
Method: The in vivo trial was carried out as described in example 7, except the feed was supplemented with the GH25 lysozyme (SEQ ID NO: 1) at 12.5 or 25 mg per kg feed, the GH24 lysozyme (SEQ ID NO: 4) at 12.5 or 25 mg per kg feed or with Avilamycin at an inclusion level of 10 mg/kg. No additional enzymes (e.g. phytase) were added to the feed. The experimental diets (Starter, Grower and Finisher) were based on soybean meal, wheat and rye (12%) as main ingredients (Table 8). The diets were formulated to contain 225 g crude protein and 12.5 MJ/kg MEN for the starter period, 215 g crude protein and 12.8 MJ/kg MEN for the grower period and 205 g crude protein and 13.0 MJ/kg MEN for the finisher period.

[7] = In vivo piglet trial, growth performance; set-up: species or system weaned piglets
Method: The trial was performed from Oct. 23 to Dec. 4, 2014 at the Research Center for Animal Nutrition (DSM Nutritional Products France, F-68305 Village-Neuf) according to the official French guidelines for experiments with live animals. One hundred and four castrated male crossbred (Large-White (female)×Redon (male)) weaned piglets having 28 days of age supplied by the commercial farm “[…] du Rhin” located in Balgau (France), were used in a 42-day experiment. The initial bodyweight of the piglets was 7.88±0.675 kg. They were sorted by body weight into 32 groups of 3 or 4 piglets and randomly allotted to each dietary treatment. Each group of animals was placed in one flat-deck cages and allocated to one of the different treatments. Each treatment was replicated with 8 cages using a total of 26 animals (6 cages of 3 animals/treatment and 2 cages of 4 animals/treatment) per treatment. […] Animals were housed in an environmentally controlled room. Room temperature was initially 27° C. and was lowered weekly by about 2° C. until 21-22° C. and relative humidity percentage was 50%. The experimental diets (Pre-Starter and Starter) were fed ad libitum in two feeding phases from day 0 to 14 (phase 1, Pre-starter) and day 14 to 42 (phase 2, Starter). The ingredient composition and the calculated nutrient levels of the experimental diets for phases 1 and 2 are presented in table 11. Both diets were formulated to meet the animals' requirements according NRC (2012) and were fed in pelleted form. Pelleting conditions were at 70° C. for 30 seconds. […] No additional enzymes (e.g. phytase) were added to the feed. […] Appropriate amount of the liquid preparations of lysozyme was diluted in water and sprayed onto the respective pelleted feed to get the final concentrations in the feed corresponding to the different treatments. For procedural balance of all treatments the same volume of water were also sprayed onto the pellets of the control diets. Body weight of the individual animals and feed consumption per pen were recorded on days 14 and 42 of the study. […] The experimental unit was the piglet, except for ADFI and FCR which were measured by cage, and in both cases, treatment was used as class variable. One-factorial ANOVA and Student-Newman-Keuls test was used to assess differences among means in treatment groups.

[8] = Finisher (d 36-42), 10 mg/kg feed
[9] = Grower (d 22-36), 10 mg/kg feed
[10] = Starter (d 1-22), 10 mg/kg feed
[11] = Whole period (d 1-42), 10 mg/kg feed

Molecule: SEQ ID NO: 5: mature amino acid sequence of a wild type GH22 lysozyme from Gallus gallus (hen egg white lysozyme), Sigma 62971 [reference compound]
- Lysozyme activity as measured by Optical Density Drop [1]: + (pH 6)
- Inhibition zone ([2]; 1/10 MHB, pH7, both experiments): 9-11 mm
- Diameter of clearing zone ([2]; Experiment 1, 1/2 MHB pH 6): 0 mm
- Diameter of clearing zone ([2]; Experiment 1, 1/10 MHB pH 7): 11 mm
- Diameter of clearing zone ([2]; Experiment 2, 1/2 MHB pH 6): 0 mm
- Diameter of clearing zone ([2]; Experiment 2, 1/10 MHB pH 7): 9 mm
- Clearing zone diameter ([2]; ½ MHB, pH 6, both experiments): no zone of inhibition
- Lysozyme activity as measured by Optical Density Drop [3]: +++ (pH 6)

Molecule: COC[C@H]1O[C@@H](OC2OC[C@@H]3O[C@]4(O[C@H]3[C@H]2OC(=O)C(C)C)O[C@H](C)[C@@](O)(C(C)=O)[C@@H]2OCO[C@H]24)[C@@H](OC)[C@@H](O)[C@@H]1O[C@@H]1O[C@H](C)[C@H](OC)[C@H](O[C@H]2C[C@@]3(C)OC4(C[C@@H](O)[C@H](O[C@H]5C[C@@H](O)[C@H](OC(=O)c6c(C)c(Cl)c(O)c(Cl)c6OC)[C@@H](C)O5)[C@@H](C)O4)O[C@@H]3[C@@H](C)O2)[C@H]1O (stereo partly drawn) [Avilamycin, reference compound]
- Improvement of FCR compared to the control diet [4]: 2.3%
- FCR ([4]; Grower (d 22-36)): 1.694^abc
- FCR, Relative to C (%) ([4]; Grower (d 22-36)): 97.7%
- Feed intake ([4]; Grower (d 22-36)): 2976^ab g/b
- Feed intake, Relative to C (%) ([4]; Grower (d 22-36)): 97.6%
- Weight gain ([4]; Grower (d 22-36)): 1757 g/b
- Weight gain, Relative to C (%) ([4]; Grower (d 22-36)): 99.8%
- FCR ([4]; Starter (d 1-22)): 1.695^c
- FCR, Relative to C (%) ([4]; Starter (d 1-22)): 93.3%
- Feed intake ([4]; Starter (d 1-22)): 1943 g/b
- Feed intake, Relative to C (%) ([4]; Starter (d 1-22)): 97.4%
- Weight gain ([4]; Starter (d 1-22)): 1147 g/b
- Weight gain, Relative to C (%) ([4]; Starter (d 1-22)): 104.1%
- FCR ([4]; Whole period (d 1-36)): 1.694^bc
- FCR, Relative to C (%) ([4]; Whole period (d 1-36)): 96%
- Feed intake ([4]; Whole period (d 1-36)): 4918^ab g/b
- Feed intake, Relative to C (%) ([4]; Whole period (d 1-36)): 97.5%
- Weight gain ([4]; Whole period (d 1-36)): 2903 g/b
- Weight gain, Relative to C (%) ([4]; Whole period (d 1-36)): 101.5%
- Improvement of FCR compared to the control diet ([4]; day 1 to day 36): 4%
- Improvement of weight gain compared to the control diet ([4]; day 1 to day 36): 1.5%
- Improvement of weight gain compared to the control diet ([4]; starter period): 4.1%
- FCR ([5]; Grower (d 22-36)): 1.621^b
- FCR, Relative to C (%) ([5]; Grower (d 22-36)): 94.2%
- Feed intake ([5]; Grower (d 22-36)): 2599 g/b
- Feed intake, Relative to C (%) ([5]; Grower (d 22-36)): 95.2%
- Weight gain ([5]; Grower (d 22-36)): 1605 g/b
- Weight gain, Relative to C (%) ([5]; Grower (d 22-36)): 101.2%
- FCR ([5]; Starter (d 1-22)): 1.421^a
- FCR, Relative to C (%) ([5]; Starter (d 1-22)): 103%
- Feed intake ([5]; Starter (d 1-22)): 1517^a g/b
- Feed intake, Relative to C (%) ([5]; Starter (d 1-22)): 103.1%
- Weight gain ([5]; Starter (d 1-22)): 1070 g/b
- Weight gain, Relative to C (%) ([5]; Starter (d 1-22)): 100.2%
- FCR ([5]; Whole period (d 1-36)): 1.537^c
- FCR, Relative to C (%) ([5]; Whole period (d 1-36)): 97.4%
- Feed intake ([5]; Whole period (d 1-36)): 4111 g/b
- Feed intake, Relative to C (%) ([5]; Whole period (d 1-36)): 98.1%
- Weight gain ([5]; Whole period (d 1-36)): 2675 g/b
- Weight gain, Relative to C (%) ([5]; Whole period (d 1-36)): 100.8%
- Improvement of FCR compared to the control diet ([5]; day 1 to day 36): 2.6%
- Improvement of FCR compared to the control diet ([5]; grower period): 5.8%
- Improvement of weight gain compared to the control diet ([5]; grower period): 1.2%
- Improvement of FCR compared to the control diet ([5]; starter period): No improvement
- Improvement of weight gain compared to the control diet ([5]; starter period): No improvement
- FCR [6, 8]: 1.982
- FCR, Relative to C (%) [6, 8]: 101.1%
- Feed intake [6, 8]: 1460 g/b
- Feed intake, Relative to C (%) [6, 8]: 98.2%
- Weight gain [6, 8]: 738 g/b
- Weight gain, Relative to C (%) [6, 8]: 97.0%
- FCR [6, 9]: 1.683
- FCR, Relative to C (%) [6, 9]: 97.7%
- Feed intake [6, 9]: 2242 g/b
- Feed intake, Relative to C (%) [6, 9]: 98.1%
- Weight gain [6, 9]: 1334 g/b
- Weight gain, Relative to C (%) [6, 9]: 100.4%
- FCR [6, 10]: 1.452
- FCR, Relative to C (%) [6, 10]: 100.8%
- Feed intake [6, 10]: 1593 g/b
- Feed intake, Relative to C (%) [6, 10]: 101.0%
- Weight gain [6, 10]: 1102 g/b
- Weight gain, Relative to C (%) [6, 10]: 100.6%
- EPEF [6, 11]: 397
- EPEF, Relative to C (%) [6, 11]: 95.0%
- FCR [6, 11]: 1.669
- FCR, Relative to C (%) [6, 11]: 99.3%
- Feed intake [6, 11]: 5312 g/b
- Feed intake, Relative to C (%) [6, 11]: 99.3%
- Motality [6, 11]: 12.5
- Weight gain [6, 11]: 3184 g/b
- Weight gain, Relative to C (%) [6, 11]: 99.9%
- EPEF worse than NC diet by ([6]; whole period, 10 mg/kg): 5.0%
- FCR improvement compared to NC diet ([6]; whole period, 10 mg/kg): 0.7%

Molecule: Bacitracin zinc salt [reference compound]
- Diameter of clearing zone ([2]; Experiment 1, 1/2 MHB pH 6): 13 mm
- Diameter of clearing zone ([2]; Experiment 1, 1/10 MHB pH 7): 23 mm
- Diameter of clearing zone ([2]; Experiment 2, 1/2 MHB pH 6): 11 mm
- Diameter of clearing zone ([2]; Experiment 2, 1/10 MHB pH 7): 20 mm

Molecule: O=C(O)c1ccccc1 [VevoVital, benzoic acid]
- ADFI, % relative NC ([7]; day 0-14, 5000 mg/kg feed): 98.6%
- ADFI, Mean ([7]; day 0-14, 5000 mg/kg feed): 355 g/day
- ADWG, % relative NC ([7]; day 0-14, 5000 mg/kg feed): 104.8%
- ADWG, Mean ([7]; day 0-14, 5000 mg/kg feed): 304 g/day
- FCR, % relative NC ([7]; day 0-14, 5000 mg/kg feed): 94.2%
- FCR, Mean ([7]; day 0-14, 5000 mg/kg feed): 1.168^a
- ADFI, % relative NC ([7]; day 0-42, 5000 mg/kg feed): 96.6%
- ADFI, Mean ([7]; day 0-42, 5000 mg/kg feed): 709^ab g/d
- ADWG, % relative NC ([7]; day 0-42, 5000 mg/kg feed): 105.4%
- ADWG, Mean ([7]; day 0-42, 5000 mg/kg feed): 526 g/day
- EPEF, % relative NC ([7]; day 0-42, 5000 mg/kg feed): 116.2%
- EPEF, Mean ([7]; day 0-42, 5000 mg/kg feed): 394
- FCR, % relative NC ([7]; day 0-42, 5000 mg/kg feed): 90.4%
- FCR, Mean ([7]; day 0-42, 5000 mg/kg feed): 1.342^a
- ADFI, % relative NC ([7]; day 14-42, 5000 mg/kg feed): 95.3%
- ADFI, Mean ([7]; day 14-42, 5000 mg/kg feed): 886^ab g/d
- ADWG, % relative NC ([7]; day 14-42, 5000 mg/kg feed): 105.8%
- ADWG, Mean ([7]; day 14-42, 5000 mg/kg feed): 638 g/day
- FCR, % relative NC ([7]; day 14-42, 5000 mg/kg feed): 90.5%
- FCR, Mean ([7]; day 14-42, 5000 mg/kg feed): 1.398^a
- Improvement on FCR compared to the negative control ([7]; overall period (day 0 to day 42), 5000 mg/kg): 9.6%
- Improvement of ADWG compared to NC ([7]; pre-starter period, 5000 mg/kg): 4.8%
- Improvement to FCR compared to NC ([7]; starter period, day 15 to day 42, 5000 mg/kg): 9.5%
- Improvement of ADWG compared to NC ([7]; starter period, 5000 mg/kg): 5.8%
- Improvement of ADWG compared to NC ([7]; whole period, 5000 mg/kg): 5.4%
